Reference: patent US6602880B2, “3-phenyl-3,7-diazabicyclo[3.3.1] nonane compounds, process for preparing them, pharmaceutical compositions containing them and use thereof to inhibit cardiac arrhythmia” (priority 2001, dated 2003)
pIC50: −log10 of the molar value.

Legend:
mice = test: Determination of the minimum toxic dose; assay type: in vivo; conditions: mouse p.o.; lowest dose causing death or severe toxic symptoms; maximum dose 300 mg/kg; observed 72 hours
Protocol: Male mice each having a weight of 20 to 25 g were administered maximum doses of 300 mg/kg of the test substance p.o. The animals were observed carefully for toxicity symptoms for 3 hours. Additionally all symptoms and deaths were recorded over a period of 72 hours after administration. Concomitant symptoms were likewise observed and recorded. If death or severe toxic symptoms were observed, further mice were administered increasingly lower doses until toxic symptoms no longer occurred. The lowest dose which caused death or severe toxic symptoms is indicated in the following Table A as the minimum toxic dose.

[1] = test system: anaesthetised guinea pigs; test: In vivo antiarrhythmic properties (ERP) and blood pressure under tachycardic conditions in anaesthetised guinea pigs; parameters: species or system guinea pig; conditions: i.v.
Description: The effects of the substances on the effective refractory period (=ERP) and the blood pressure on i.v. administration with increased heart rate were investigated on anaesthetised guinea pigs. A bipolar stimulation catheter was inserted into the right ventricle of the animals via a jugular vein under full anaesthesia. The heart rates of the animals were kept at about 150% of their normal heart rates via this catheter by means of electrical stimulation during the entire investigation. A cannula for i.v. administration of the test substances was inserted in the other jugular vein. During the investigation, the systolic and the diastolic arterial blood pressure (=SAP and DAP) were measured in a carotid artery via a pressure gauge (Statham pressure transducer). The test substances were administered i.v. in increasing doses (cumulatively). Before administration of the first dose and in each case 8 minutes after administration of each dose, the ERP was determined by means of a double pulse protocol. The dose at which a prolongation of the ERP to 115% of the starting value was achieved was considered as the effective dose (=ERP-ED115). Effective doses for a hypotensive effect were considered as the dose at which the SAP was decreased to 85% of its starting value (=SAP-ED85), and the dose at which the DAP was decreased to 85% of its starting value (=DAP-ED85).

[2] = test system: isolated papillary muscle of the right ventricle of guinea pigs; test: In vitro functional refractory period on electrically stimulated papillary muscles from guinea-pig hearts; conditions: concentration prolonging FRP by 12 milliseconds; stimulation 3 Hz; 20 minutes after addition
Protocol: The heart was quickly removed from guinea pigs which had been sacrificed by a blow to the back of the neck and the papillary muscles of the right ventricle were fixed in organ baths through which temperature-controlled oxygenated nutrient solution flowed. The muscle preparations were electrically stimulated with a frequency of 3 Hz. The test substances were added to the organ baths in increasing concentrations (cumulatively). In each case 20 minutes after addition of the test substance, the functional refractory period was determined by means of a double pulse protocol. In each case a cumulative concentration/action curve was plotted from the measured values. The concentration at which a prolongation of the FRP by 12 milliseconds was achieved was calculated from this as the effective concentration (=FRP-EC+12ms).

[3] = test system: isolated perfused rabbit hearts; test: In vitro potential proarrhythmogenity on isolated perfused rabbit hearts (monophasic action potential); conditions: three hearts (n=3), one value each; for Instability: control about 7 ms; for Triangulation: control about 90 ms
Protocol: The extent of the potential proarrhythmogenity of Class III antiarrhythmic substances can be estimated using the measurement of electrophysiological parameters such as “instability” and “triangulation” (see below) on the monophasic action potential, derived from isolated perfused rabbit hearts. The pharmacological test set forth below was performed analogously to the method fundamentally described in L. M. Hondeghem et al., Circulation 103 (2001) 2004-2013 (referred to hereafter as “Hondeghem et al.”), in conjunction with L. M. Hondeghem, Journal of Cardiovascular Electrophysiology 5(8) (1994) 711-721 (referred to hereafter as “Hondeghem”). The hearts were quickly removed from rabbits which had been sacrificed by a blow to the back of the neck, and were immediately perfused in a Langendorff arrangement under constant pressure (80 cm H2O) with temperature-controlled oxygenated nutrient solution. The heart was stimulated with different stimulation protocols using two stimulation electrodes which were each arranged in the region of the right and left crus of the bundle of His (cf. “Hondeghem et al.”). Two further electrodes (one discharge electrode endocardially in the region of the septum of the left ventricle and a reference electrode epicardially on the left ventricle) served to discharge the monophasic action potential.
Using the monophasic action potential duration with different repolarisation levels (APD10-90; “APD10” designates the action potential duration until the occurrence of 10% of repolarisation), the following parameters were derived as indicators of the proarrhythmogenity:
(1) Instability: The change in the APD60 from heartbeat to heartbeat is designated “instability”. Under control conditions, this value is on average about 7 milliseconds (=ms). Greater deviations from this average value towards a longer duration (>7 ms) indicate an increased probability of occurrence for proarrhythmias caused by the test substances investigated.
(2) Triangulation: The repolarisation time in ms from APD30 to ADP90 is designated “triangulation”. Under control conditions, this value is usually about 90 ms.
The results obtained with the method described above on three hearts (n=3) in each case are reproduced in the following Table D.

iKs = target: T1, iKs (Canis lupus familiaris, UniProt A0A8I3N8W8); test: Blocking action on slow delayed rectifier potassium current iKs, whole-cell patch-clamp on dog cardiac muscle cells; assay type: cell-based; conditions: dog left ventricle cardiac muscle cells; 1 μM nisoldipine and 2 μM E-4031 added; holding potential -40 mV
T1 construct: the individualised cardiac muscle cells are investigated electrophysiologically using the “whole-cell patch-clamp” method; from tissue; host or cells: isolated dog left ventricular cardiac muscle cells
T1 sequence (A0A8I3N8W8 1-676): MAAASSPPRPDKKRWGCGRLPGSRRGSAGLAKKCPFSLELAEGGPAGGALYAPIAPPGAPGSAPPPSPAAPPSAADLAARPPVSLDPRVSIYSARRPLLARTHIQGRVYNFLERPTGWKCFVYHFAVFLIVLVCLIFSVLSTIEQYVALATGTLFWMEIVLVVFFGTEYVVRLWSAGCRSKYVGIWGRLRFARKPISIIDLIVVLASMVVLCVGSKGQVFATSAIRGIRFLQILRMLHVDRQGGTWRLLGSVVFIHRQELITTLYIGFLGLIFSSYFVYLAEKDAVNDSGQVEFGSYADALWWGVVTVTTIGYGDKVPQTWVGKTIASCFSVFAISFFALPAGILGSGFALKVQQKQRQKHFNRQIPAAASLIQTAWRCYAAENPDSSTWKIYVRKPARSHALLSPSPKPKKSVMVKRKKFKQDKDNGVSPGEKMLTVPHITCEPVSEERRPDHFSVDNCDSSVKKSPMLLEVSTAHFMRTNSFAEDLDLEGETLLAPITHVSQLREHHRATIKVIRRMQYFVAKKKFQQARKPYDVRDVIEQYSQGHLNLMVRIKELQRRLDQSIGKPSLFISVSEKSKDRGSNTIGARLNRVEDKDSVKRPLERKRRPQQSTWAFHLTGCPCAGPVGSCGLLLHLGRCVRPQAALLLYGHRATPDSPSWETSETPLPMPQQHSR
Protocol: The iKs can be measured selectively in the manner described below: the hearts are quickly removed from anaesthetised dogs and a muscle section from the left ventricle is perfused with collagenase-containing solution via an arterial vessel. The well-dissociated tissue is comminuted and the individualised cardiac muscle cells are investigated electrophysiologically using the “whole-cell patch-clamp” method (cf. O. P. […] The iKs is then determined using the current amplitude immediately after a 5-second pulse protocol of -40 mV holding potential at most +50 mV depolarisation. The iKr (HERG) can be measured selectively in the manner stated below: to measure the iKr, a cell line (human embryonal kidney cells, HEK293; see e.g. American Tissue Culture Collection (=ATCC) No.: CRL-1573) is used, which is stably transfected with the gene for the iKr (HERG) (cf. Z. Zhou et al., Biophysical Journal 74(1) (1998) 230-241). […] The iKr is determined using the current amplitude at -40 mV holding potential immediately after a 500 ms pulse protocol of -75 mV holding potential at most +10 mV depolarisation. That substance concentration at which 50% of the maximum current is blocked (IC50 %) is determined from the inhibitions of the corresponding current at different substance concentrations.

iKr (HERG) = target: T2, iKr (HERG) (Homo sapiens, UniProt Q12809); test: Blocking action on rapid delayed rectifier potassium current iKr (HERG), HEK293 cells stably transfected; assay type: cell-based; conditions: HEK293 cells stably transfected with HERG
T2 construct: expressed in transfected cells; host or cells: HEK293 (ATCC CRL-1573), stably transfected
T2 sequence (Q12809 whole entry): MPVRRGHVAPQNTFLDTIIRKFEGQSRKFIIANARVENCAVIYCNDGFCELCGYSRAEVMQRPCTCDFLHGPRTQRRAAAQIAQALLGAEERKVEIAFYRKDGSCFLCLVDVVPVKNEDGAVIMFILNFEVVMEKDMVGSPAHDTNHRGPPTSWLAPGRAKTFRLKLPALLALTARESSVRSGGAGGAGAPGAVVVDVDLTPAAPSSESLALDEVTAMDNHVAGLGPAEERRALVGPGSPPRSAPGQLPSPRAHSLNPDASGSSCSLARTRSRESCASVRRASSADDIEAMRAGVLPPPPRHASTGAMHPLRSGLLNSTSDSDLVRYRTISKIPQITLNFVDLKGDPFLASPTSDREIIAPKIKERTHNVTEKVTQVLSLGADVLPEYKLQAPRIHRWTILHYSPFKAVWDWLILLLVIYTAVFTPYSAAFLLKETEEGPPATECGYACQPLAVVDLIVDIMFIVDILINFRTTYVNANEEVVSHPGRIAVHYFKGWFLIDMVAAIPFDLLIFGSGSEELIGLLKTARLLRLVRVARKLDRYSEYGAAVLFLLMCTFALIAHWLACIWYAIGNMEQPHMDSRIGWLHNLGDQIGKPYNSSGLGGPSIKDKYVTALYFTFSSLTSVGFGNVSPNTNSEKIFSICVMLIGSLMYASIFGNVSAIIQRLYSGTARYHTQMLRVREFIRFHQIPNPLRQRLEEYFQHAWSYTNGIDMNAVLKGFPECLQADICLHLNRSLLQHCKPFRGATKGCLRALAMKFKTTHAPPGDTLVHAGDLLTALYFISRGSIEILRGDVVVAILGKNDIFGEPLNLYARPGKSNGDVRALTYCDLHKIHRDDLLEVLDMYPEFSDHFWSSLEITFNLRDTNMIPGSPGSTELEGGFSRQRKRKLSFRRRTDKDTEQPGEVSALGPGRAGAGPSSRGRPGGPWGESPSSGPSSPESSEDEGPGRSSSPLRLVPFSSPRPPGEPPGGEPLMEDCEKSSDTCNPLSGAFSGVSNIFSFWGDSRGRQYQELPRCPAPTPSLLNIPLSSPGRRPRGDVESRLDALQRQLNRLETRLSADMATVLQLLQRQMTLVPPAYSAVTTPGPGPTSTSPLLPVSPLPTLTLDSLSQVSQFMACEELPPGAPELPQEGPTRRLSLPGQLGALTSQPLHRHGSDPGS
Protocol: The iKr (HERG) can be measured selectively in the manner stated below: to measure the iKr, a cell line (human embryonal kidney cells, HEK293; see e.g. American Tissue Culture Collection (=ATCC) No.: CRL-1573) is used, which is stably transfected with the gene for the iKr (HERG) (cf. Z. Zhou et al., Biophysical Journal 74(1) (1998) 230-241). […] The iKr is determined using the current amplitude at −40 mV holding potential immediately after a 500 ms pulse protocol of −75 mV holding potential at most +10 mV depolarisation. That substance concentration at which 50% of the maximum current is blocked (IC50 %) is determined from the inhibitions of the corresponding current at different substance concentrations.

anaesthetised cats = test: In vivo fibrillation threshold in anaesthetised cats; parameters: species or system cat; conditions: more marked on the atrium than on the ventricle
Description: Such an atrioselective increase in the fibrillation threshold is an indication that the tested compound has a beneficial action profile with a reduced proarrhythmogenity risk.

Row | SMILES | Minimum toxic dose (mice) [mg/kg] | Antiarrhythmic action ERP-ED115 ([1]; cumulative doses, dose prolonging ERP to 115% of starting value, heart rate about 150% of normal) [µmol/kg] | Vasodepression ED85 DAP ([1]; dose decreasing diastolic arterial pressure to 85% of starting value, >> = no tendency to vasodepression at the doses tested) | Vasodepression ED85 SAP ([1]; dose decreasing systolic arterial pressure to 85% of starting value, >> = no tendency to vasodepression at the doses tested) | Antiarrhythmic action FRP-EC+12 ms [2] [µmol/L] | Instability ([3]; 0.3 μM) | Triangulation ([3]; 0.3 μM) | Instability ([3]; 1 μM) | Triangulation ([3]; 1 μM) | pIC50 (iKs) | pIC50 (iKr (HERG)) | increase in the fibrillation threshold (anaesthetised cats; administration i.v.) | increase in the fibrillation threshold (anaesthetised cats; administration p.o.)
1 | CCCCN1CC2CN(c3ccc([N+](=O)[O-])cc3[N+](=O)[O-])CC(C1)C2(C)C [Example 1, 7-(n-Butyl)-3-(2,4-dinitrophenyl)-9,9-dimethyl-3,7-diazabicyclo[3.3.1]nonane] | 300 | 0.4 | >>10 μmol/kg | >>10 μmol/kg | 0.6 | – | – | – | – | – | – | – | –
2 | CCCCN1CC2CN(c3ccc(C#N)cc3)CC(C1)C21CCCC1.O=C(O)C(O)C(O)C(=O)O [Example 4, 7-(n-Butyl)-3-(4-cyanophenyl)-9,9-tetramethylene-3,7-diazabicyclo[3.3.1]nonane Hydrogen Tartrate] | – | – | – | – | 0.8 | 6/3/3 | 48/64/62 | 6/25/7 | 52/79/79 | 6.15 | 7.70 | dosage-dependent, clear, long-lasting increase in the fibrillation threshold | dosage-dependent, clear, long-lasting increase in the fibrillation threshold
